# Data reported in US20140080810A1 (Exelixis, Inc., priority 2010, published 2014).
# Tests used:
# PTEN-negative tumors [1] = details: specific inhibition of PI3Kβ; cited from earlier work
# [2] = tested on: pAKT (T308) in MCF-7 cells (PI3Kα E545K); test: pAKT (T308) ELISA Assay; type: cell-based; details: Homo sapiens, MCF7; IGF1 stimulation; read-out: pAKT (T308) IC50 MCF-7 PI3Kα E545K IGF1
# Experimental: MCF-7 cells (ATCC) cells were seeded at 24000 cells per well in 96-well plates (Corning, 3904) in DMEM (Cellgro) containing 10% FBS (Cellgro), 1% NEAA (Cellgro) and 1% penicillin-streptomycin (Cellgro). Cells were incubated at 37° C., 5% CO2 for 48 h, and the growth medium was replaced with serum-free DMEM or in medium containing 0.4% BSA. Serial dilutions of the test Compound in 0.3% DMSO (vehicle) were added to the cells and incubated for 3 h. At the end of the incubation period, cells were stimulated for 10 minutes by the addition of L-IGF (Sigma, I-1271) at a final concentration of 100 ng/ml. Afterwards, media was discarded from cell plates and 110 μl/well of cold lysis buffer (see table below) were added. Cell plates were incubated on ice and then put on shaker in 4° C. cold room for 1 h. Two capture plates (Thermo Scientific, Reacti-bind plate, 15042) were prepared for each cell plate by pre-coating with capture Akt antibody from the two sandwich ELISA antibody pairs used (Cell Signaling Technology 7142 and 7144). The Akt capture antibodies were diluted 1:100 in PBS and 100 μl of diluted capture antibody was added per well. Capture plates were incubated at 4 C overnight. Prior to use, capture plates were washed 3 times in TBS containing 0.1% Tween20 (Bio-Rad, 170-6351) (TBST) and blocked in blocking buffer (Thermo Scientific, Starting Block T20, 37543) for 1-2 h at room temperature. After 1 h of cell lysis, 85 μl of cell lysate/well was transferred to the capture plate for detection of pAkt(T308). 15 μl of cell lysate was transferred from same well to the second capture plate for detection of total Akt1. After incubation overnight at 4° C., plates were washed 3 times with 200 μL TBST. Primary antibodies, diluted 1:100 in blocking buffer, were added to the corresponding capture plates for pAkt(T308) (Cell Signaling Technology, 7144) and total Akt1 (Cell Signaling Technology, 7142) detection and incubated at room temperature for 1 h. Plates were washed 3 times with 200 μL of TBST. Goat anti-mouse secondary antibody (Cell Signaling Technology, 7076) conjugated to HRP was diluted 1:1000 in blocking buffer and 100 μl were added to each well and incubated for 30 minutes at room temperature. Plates were then washed 3 times with 200 μL of TBST. 100 μL of SuperSignal ELISA Femto stable peroxidase solution (Thermo Scientific, 37075) was added to each well. After 1 minute incubation, chemiluminescence was read on a Wallac Victor2 1420 multilabel counter. IC50 values were determined based on the ratio of pAkt(T308) to total Akt1 signal for Compound treated wells, normalized to the DMSO-treated control wells.
# In another embodiment, the pAKT ELISA Assay was performed by seeding cells onto 96-well plates (Corning, 3904) in their respective growth media at the densities listed in Table 5. Cells were incubated at 37° C., 5% CO2 for 48 h (except MDA-MB-453 cells which were cultured in the absence of CO2). Compounds were serially diluted in DMSO and subsequently diluted in serum-free DMEM. Test compounds were added to cells in serum-free DMEM at a final concentration of 0.3% DMSO and incubated for 3 h. Cells were lysed with 130 μL of ice-cold RIPA lysis buffer (50 mM Tris-HCl, pH 7.5; 0.5% sodium deoxycholic acid; 1% Triton X-100; 0.1% SDS; 150 mM NaCl) with protease and phosphatase inhibitors (1 mM EDTA, 1 mM NaF, 20 mM β-glycerophosphate, 1 mM Na-orthovanadate, Complete-Mini EDTA-free, Roche, 11836170001, and Phosphatase Inhibitor Cocktail I, Sigma, P2850), directly in 96-well plates. Cells were lysed on ice for 60-120 min at 4° C. The supernatants were added directly to capture ELISA plates previously pre-coated with rabbit anti-AKT capture antibody. ELISA assays for pAKT(T308) and total AKT were performed with the pAKT(T308) ELISA kit (Cell Signaling Technology, 7144) and AKT1 ELISA kit (Cell Signaling Technology, 7142). For the pAKT(T308) ELISA, 85 μL of cell lysate was added to each well. […]
# PTEN-negative tumors [3] = details: specific inhibition of PI3Kβ; cited from earlier work; remark: listed apart in the source
smiles,measurement,setting,value
"Cc1cc(C(C)Nc2ccccc2)c2nc(N3CCOCC3)cc(=O)n2c1 (stereo not drawn) [TGX-221, 7-methyl-2-(4-morpholinyl)-9-[1-(phenylamino)ethyl]-4H-pyrido[1,2-a]pyrimidin-4-one]",cell growth,PTEN-negative tumors [1],blocks
same,IC50,[2],1760 nM
same,basal AKT phosphorylation,PTEN-negative tumors [3],blocks
